Measured values taken from the Kinase Knowledgebase extract (Sharma et al. 2016).

Target: EGFR (human) (UniProt P00533)
Sequence (P00533 whole entry, looked up): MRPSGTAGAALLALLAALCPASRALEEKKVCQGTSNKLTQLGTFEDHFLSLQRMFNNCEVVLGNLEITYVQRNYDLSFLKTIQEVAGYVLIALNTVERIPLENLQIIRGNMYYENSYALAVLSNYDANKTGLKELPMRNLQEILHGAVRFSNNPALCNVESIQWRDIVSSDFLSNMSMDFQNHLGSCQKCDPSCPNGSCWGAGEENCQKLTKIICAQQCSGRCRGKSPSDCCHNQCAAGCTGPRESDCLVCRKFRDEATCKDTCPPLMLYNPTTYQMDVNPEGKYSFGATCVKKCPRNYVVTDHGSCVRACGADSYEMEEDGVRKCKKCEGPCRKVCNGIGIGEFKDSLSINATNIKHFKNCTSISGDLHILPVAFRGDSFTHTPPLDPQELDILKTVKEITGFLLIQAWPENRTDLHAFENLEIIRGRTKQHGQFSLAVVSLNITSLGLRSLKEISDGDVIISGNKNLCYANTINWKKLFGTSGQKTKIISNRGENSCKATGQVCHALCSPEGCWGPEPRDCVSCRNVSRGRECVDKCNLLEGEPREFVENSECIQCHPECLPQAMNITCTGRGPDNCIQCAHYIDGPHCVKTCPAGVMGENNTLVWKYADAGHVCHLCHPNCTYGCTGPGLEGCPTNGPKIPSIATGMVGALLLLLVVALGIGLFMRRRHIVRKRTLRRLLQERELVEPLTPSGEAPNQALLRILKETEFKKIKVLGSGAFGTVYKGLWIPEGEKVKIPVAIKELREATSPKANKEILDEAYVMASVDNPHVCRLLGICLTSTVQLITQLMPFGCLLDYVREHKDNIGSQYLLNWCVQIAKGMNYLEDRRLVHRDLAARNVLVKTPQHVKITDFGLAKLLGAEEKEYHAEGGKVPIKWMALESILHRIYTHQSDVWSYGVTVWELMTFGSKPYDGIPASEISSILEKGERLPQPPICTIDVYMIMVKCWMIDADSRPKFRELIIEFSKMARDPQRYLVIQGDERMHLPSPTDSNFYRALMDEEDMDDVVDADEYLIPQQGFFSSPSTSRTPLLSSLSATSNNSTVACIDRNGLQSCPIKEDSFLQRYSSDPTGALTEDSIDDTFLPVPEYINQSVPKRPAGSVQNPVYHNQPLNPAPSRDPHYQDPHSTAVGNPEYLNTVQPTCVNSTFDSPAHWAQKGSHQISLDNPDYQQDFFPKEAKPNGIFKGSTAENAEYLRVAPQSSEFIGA

| Compound | IC50 [µM] |
| --- | --- |
| COc1cc(Br)cc(C=NNc2nc3nonc3nc2Nc2cccc(Cl)c2)c1O | < 1 |
| COc1cccc(C=NNc2nc3nonc3nc2Nc2ccc(Cl)c(Cl)c2)c1O | < 1 |
| COc1ccc(O)c(C=NNc2nc3nonc3nc2Nc2ccc(Cl)c(Cl)c2)c1 | < 1 |
| Clc1ccc(Nc2nc3nonc3nc2NN=Cc2ccco2)cc1Cl | < 1 |
| Fc1ccc(Nc2nc3nonc3nc2NN=Cc2ccc(-c3ccc(Cl)cc3Cl)o2)cc1 | < 1 |
| O=C(O)c1cccc(C=NNc2nc3nonc3nc2Nc2ccc(F)c(Cl)c2)c1 | < 1 |
| O=C(O)c1cccc(C=NNc2nc3nonc3nc2Nc2ccc(Cl)c(Cl)c2)c1 | < 1 |
| O=C1Nc2ccccc2C1=NNc1nc2nonc2nc1Nc1ccc(F)c(Cl)c1 | < 1 |
| Clc1ccc(Nc2nc3nonc3nc2NN=Cc2cc3ccccc3o2)cc1Cl | < 1 |
| COc1ccc(C=NNc2nc3nonc3nc2Nc2ccc(Cl)c(Cl)c2)c(O)c1 | < 1 |
| Oc1c(Br)cc(Cl)cc1C=NNc1nc2nonc2nc1Nc1ccc(Cl)c(Cl)c1 | < 1 |
| O=C1Nc2ccccc2C1=NNc1nc2nonc2nc1Nc1ccc(Cl)c(Cl)c1 | < 1 |
| Oc1c(Br)cc(Br)cc1C=NNc1nc2nonc2nc1Nc1ccc(F)c(Cl)c1 | < 1 |
| Cc1cccc(Nc2nc3nonc3nc2NN=Cc2ccc(-c3cccc(C(=O)O)c3)o2)c1 | < 1 |
| COc1cc(C=NNc2nc3nonc3nc2Nc2ccccc2F)cc([N+](=O)[O-])c1O | < 1 |
| Oc1ccc(C=NNc2nc3nonc3nc2Nc2ccc(Cl)c(Cl)c2)c(O)c1 | < 1 |
| Fc1ccc(Nc2nc3nonc3nc2NN=Cc2cc3ccccc3o2)cc1Cl | < 1 |
| O=C(O)c1ccc(C=NNc2nc3nonc3nc2Nc2ccc(F)c(Cl)c2)cc1 | < 1 |
| O=[N+]([O-])c1cccc(-c2ccc(C=NNc3nc4nonc4nc3Nc3ccc(F)cc3)o2)c1 | < 1 |
| O=[N+]([O-])c1cccc(-c2ccc(C=NNc3nc4nonc4nc3Nc3cccc(Cl)c3)o2)c1 | < 1 |
| O=C(O)c1ccc(-c2ccc(C=NNc3nc4nonc4nc3Nc3ccc(F)cc3)o2)cc1 | < 1 |
| CCOC(=O)c1ccccc1C=NNc1nc2nonc2nc1Nc1ccc(Cl)c(Cl)c1 | < 1 |
| Oc1c(Br)cc(Br)cc1C=NNc1nc2nonc2nc1Nc1cccc(Cl)c1 | < 1 |
| O=c1[nH]c2ccc(Nc3nc4nonc4nc3NN=Cc3cc(I)cc(I)c3OCc3ccc(Cl)cc3Cl)cc2[nH]1 | < 1 |

Next, values leading:

| IC50 [µM] | Compound |
| --- | --- |
| < 1 | O=C(O)c1cc(-c2ccc(C=NNc3nc4nonc4nc3Nc3ccc(Br)cc3)o2)ccc1Cl |
| < 1 | Clc1ccc(-c2ccc(C=NNc3nc4nonc4nc3Nc3ccc(Cl)c(Cl)c3)o2)cc1 |
| < 1 | O=C(O)c1ccc(-c2ccc(C=NNc3nc4nonc4nc3Nc3ccc(Cl)c(Cl)c3)o2)cc1 |
| < 1 | O=C(O)c1cc(-c2ccc(C=NNc3nc4nonc4nc3Nc3ccccc3F)o2)ccc1Cl |
| < 1 | O=C(O)c1cccc(-c2ccc(C=NNc3nc4nonc4nc3Nc3ccc(Cl)c(Cl)c3)o2)c1 |
| < 1 | O=C(O)c1cc(-c2ccc(C=NNc3nc4nonc4nc3Nc3ccc(F)c(Cl)c3)o2)ccc1Cl |
| < 1 | Cc1cccc(Nc2nc3nonc3nc2NN=Cc2ccc(-c3ccc(Cl)c(C(=O)O)c3)o2)c1C |
| < 1 | Fc1ccc(Nc2nc3nonc3nc2NN=Cc2ccc(-c3ccc(Cl)cc3)o2)cc1Cl |
| < 1 | O=C(O)c1ccc(-c2ccc(C=NNc3nc4nonc4nc3Nc3ccc(F)c(Cl)c3)o2)cc1 |
| < 1 | O=C(O)c1cccc(-c2ccc(C=NNc3nc4nonc4nc3Nc3cccc(Cl)c3)o2)c1 |
| < 1 | O=C(O)c1cc(-c2ccc(C=NNc3nc4nonc4nc3Nc3ccc(F)cc3)o2)ccc1Cl |
| < 1 | O=C(O)c1cc(-c2ccc(C=NNc3nc4nonc4nc3Nc3ccccc3F)o2)ccc1O |
| < 1 | Clc1ccc(Nc2nc3nonc3nc2NN=Cc2ccc(-c3ccccc3)o2)cc1Cl |
| < 1 | NC(=O)c1cccc(-c2ccc(C=NNc3nc4nonc4nc3Nc3ccc(Cl)c(Cl)c3)o2)c1 |
| < 1 | O=C(O)c1cc(-c2ccc(C=NNc3nc4nonc4nc3Nc3ccc(Cl)c(Cl)c3)o2)ccc1Cl |
| < 1 | Fc1ccc(Nc2nc3nonc3nc2NN=Cc2ccc(-c3ccccc3)o2)cc1Cl |
| < 1 | NC(=O)c1cccc(-c2ccc(C=NNc3nc4nonc4nc3Nc3ccc(F)c(Cl)c3)o2)c1 |
